Experimental data from patent US20060257474A1, “Remedies for glomerular diseases” (Kowa Co., Ltd., priority 2002, published 2006).
Structures can show the parent of a compound that is named as a salt.

Test system: progressive anti-Thy-1 nephritic rat
Assay: Pharmacological test to a progressive anti-Thy-1 nephritic rat: total amount of protein excretion in urine
Type: in vivo, Wistar female rats
Details: 18 h urine
Procedure: Wistar female rats (5 weeks of age, purchased from Japan SLC Co., Ltd.) were quarantined and acclimatized for 4 days and then used for the test. First, a right kidney of the rat was removed through a flank incision under anesthesia with pentobarbital. After 2 weeks passed, an anti-Thy-1 antibody (monoclonal antibody 1-22-3; purchased from […] Laboratories Co., Ltd.) was intravenously administered (500 μg/rat) into the tail vein to thereby bring about progressive renal damage, and the following tests 1 to 3 were immediately investigated. […] Control group (antibody-treated and compound-non-administered group): N=8, an antibody-non-treated group: N=6. Test 2: dilazep hydrochloride (10 mg/kg) dissolved in a physiological saline was continuously intraperitoneally administered for 10 weeks. Control group (antibody-treated and compound-non-administered group): N=8, an antibody-non-treated group: N=6. […] Control group (antibody-treated and compound-non-administered group): N=10, an antibody-non-treated group: N=6. In each test, after administering the drugs for 10 weeks, urine was taken for 18 hours by means of a metabolic cage (Sugiyama Gen Co., Ltd.) to measure the total amount of protein excretion in urine.

Row | Compound | total amount of protein excretion in urine (dilazep hydrochloride alone, 10 mg/kg intraperitoneally for 10 weeks, vs compound-non-administered control group (FIG. 2)) | total amount of protein excretion in urine (pitavastatin calcium alone, 10 mg/kg orally for 10 weeks, vs compound-non-administered control group (FIG. 1))
1 | COc1cc(C(=O)OCCCN2CCCN(CCCOC(=O)c3cc(OC)c(OC)c(OC)c3)CC2)cc(OC)c1OC [dilazep hydrochloride] | almost the same as that of the compound-non-administered group in the control | 
2 | O=C([O-])C[C@H](O)C[C@H](O)/C=C/c1c(C2CC2)nc2ccccc2c1-c1ccc(F)cc1.O=C([O-])C[C@H](O)C[C@H](O)/C=C/c1c(C2CC2)nc2ccccc2c1-c1ccc(F)cc1.[Ca+2] [pitavastatin calcium] |  | almost the same as that of the compound-non-administered group in the control
